Assay [1] concerns the target human RORγt ligand binding domain (RORγt LBD) (Homo sapiens (Human), UniProt P51449). The experiment in a line: RORγt ThermoFluor assay. (In general: Differential scanning fluorimetry follows unfolding on heating by fluorescence.)
For assay [2], the target named is full-length human RORγt (GAL4-DBD-RORγt fusion) in HEK293T cells (Homo sapiens (Human), UniProt P51449). The experiment in a line: RORγt (full-length human) reporter assay, conditions A or B. The assay is classed as cell-based. The settings on record: for IC50: HEK293T cells, read-out: RORγt (FL) Reporter Assay A or B, IC50; for inhibition at 3 µM / inhibition at 2 µM / inhibition at 6 µM: HEK-293T; for inhibition at 3 µM: 3 μM compound concentration (footnote *); for inhibition at 3 µM / inhibition at 2 µM: read-out: RORγt (FL) Reporter Assay A or B, % inhibition; for inhibition at 2 µM: 2 μM compound concentration; for inhibition at 6 µM: 6 μM compound, read-out: RORγt (FL) Reporter Assay A or B, % inhibition @ 6 μM. Put shortly: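 HEK293T cells expressing GAL4-DBD-RORγt fusion (96- or 384-well formats, DMEM/10% FBS) exposed to compound overnight (16–20 h). Firefly luciferase normalized to DMSO and saturating reference compound, then to Renilla; IC50 from dose curve, % inhibition versus DMSO.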
For orientation: A reporter such as luciferase makes a cellular process visible.

In assay [3] the test system is IL-17 production by human CD4+ T cells under Th17 differentiation. The experiment in a line: Human Th17 assay (IL-17 production by CD4 T cells). The assay is classed as cell-based. The note with it: 72 h, IL-17 after 3 days. An excerpt:
The human Th17 assay tests the effect of RORγt modulatory compounds on IL-17 production by CD4 T cells under conditions which favor Th17 differentiation. Total CD4^+ T cells were isolated from the peripheral blood mononuclear cells (PBMC) of healthy donors using a CD4^+ T cell isolation kit II, following the manufacturer's instructions (Miltenyi Biotec). Cells were resuspended in a medium of RPMI-1640 supplemented with 10% fetal bovine serum, penicillin, streptomycin, glutamate, and β-mercaptoethanol and were added to 96-well plates at 1.5×10^5 per 100 μL per well. 50 μL of compound at titrated concentrations in DMSO were added into each well at final DMSO concentration at 0.2%. Cells were incubated for 1 hour, then 50 μL of Th17 cell differentiation medium was added to each well. The final concentrations of antibodies and cytokines (R&D Systems) in differentiation medium were: 3×10^6/mL anti-CD3/CD28 beads (prepared using human T cell activation/expansion kit, Miltenyi Biotec), 10 μg/mL anti-IL4, 10 μg/mL anti-IFNγ, 10 ng/mL IL1β, 10 ng/mL IL23, 50 ng/mL IL6, 3 ng/mL TGFβ and 20 U/mL IL2. Cells were cultured at 37° C. and 5% CO2 for 3 days. Supernatants were collected and the accumulated IL-17 in culture was measured by using MULTI-SPOT® Cytokine Plate following manufacture's instruction (Meso Scale Discovery). The plate was read using Sector Imager 6000, and IL-17 concentration was extrapolated from the standard curve. The IC50s were determined by GraphPad.

This passage reports Kd, IC50 and inhibition results from patent publication US11034658B2, “Pyridinyl pyrazoles as modulators of RORγT” (Janssen Pharmaceutica NV, priority 2018, dated 2021).

Molecules are shown by their SMILES.

What is called Kd is a measure of binding affinity in units of concentration. High values mean a looser complex, low ones a tighter complex. The term IC50 denotes the concentration that inhibits the measured activity by half. By inhibition is commonly meant the change of the read-out against control, counted positive when it falls.

Sequence of full-length human RORγt (GAL4-DBD-RORγt fusion) in HEK293T cells (P51449 other isoform, or with tags, fused parts or gaps): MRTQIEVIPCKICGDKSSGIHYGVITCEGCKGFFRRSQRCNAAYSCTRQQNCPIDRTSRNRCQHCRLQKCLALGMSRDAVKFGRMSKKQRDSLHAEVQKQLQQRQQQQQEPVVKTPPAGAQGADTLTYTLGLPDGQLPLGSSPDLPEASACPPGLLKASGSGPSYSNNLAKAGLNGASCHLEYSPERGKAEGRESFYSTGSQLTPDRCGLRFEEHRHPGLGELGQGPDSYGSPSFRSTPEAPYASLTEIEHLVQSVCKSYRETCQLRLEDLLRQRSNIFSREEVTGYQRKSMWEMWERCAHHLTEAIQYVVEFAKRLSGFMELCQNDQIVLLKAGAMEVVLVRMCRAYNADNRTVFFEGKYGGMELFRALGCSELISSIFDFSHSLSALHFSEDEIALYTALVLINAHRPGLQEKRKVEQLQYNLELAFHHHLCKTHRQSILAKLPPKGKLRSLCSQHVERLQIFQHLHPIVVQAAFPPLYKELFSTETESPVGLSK
Sequence of human RORγt ligand binding domain (RORγt LBD) (P51449 other isoform, or with tags, fused parts or gaps): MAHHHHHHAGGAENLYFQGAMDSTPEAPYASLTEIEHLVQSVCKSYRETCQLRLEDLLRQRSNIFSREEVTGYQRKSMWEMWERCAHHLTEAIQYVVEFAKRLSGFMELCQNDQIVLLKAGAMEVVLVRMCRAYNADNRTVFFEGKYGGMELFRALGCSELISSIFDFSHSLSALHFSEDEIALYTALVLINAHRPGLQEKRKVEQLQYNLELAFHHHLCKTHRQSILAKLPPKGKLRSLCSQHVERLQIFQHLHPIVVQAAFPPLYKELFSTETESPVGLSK

As for `CCc1cc(C[C@@H](C)C(F)(F)F)ncc1-c1c(Cl)c(C(=O)NC[C@H]2CC[C@H](S(C)(=O)=O)CC2)nn1CC` (relative stereo) [Example 57, 4-Chloro-1-ethyl-5-(4-ethyl-6-((R*)-3,3,3-trifluoro-2-methylpropyl)pyridin-3-yl)-N-((1r,4R)-4-(methylsulfonyl)cyclohexyl)methyl)-1H-pyrazole-3-carboxamide], in assay [1], the Kd was 20 nM. For the same compound, in assay [2], the IC50 came to 340 nM and the inhibition at 3 µM was found to be 43%. Half-maximal inhibition in assay [3] (IC50) was put at 450 nM.
In the same order, the values of `CCc1cc(C[C@@H](C)C(F)(F)F)ncc1-c1c(C)c(C(=O)NC[C@H]2CC[C@H](S(C)(=O)=O)CC2)nn1CC` (relative stereo) [Example 58, 1-Ethyl-5-(4-ethyl-6-((R*)-3,3,3-trifluoro-2-methylpropyl)pyridin-3-yl)-4-methyl-N-((1r,4R)-4-(methylsulfonyl)cyclohexyl)methyl)-1H-pyrazole-3-carboxamide] are 43 nM, over 2900 nM, 23% and 730 nM.
On to `CCc1cc(C[C@@H](C)C(F)(F)F)ncc1-c1c(Cl)c(C(=O)NC[C@]2(O)CC[C@@H](S(C)(=O)=O)CC2)nn1CC` (single isomer, unassigned) [Example 56, 4-Chloro-1-ethyl-5-(4-ethyl-6-((R*)-3,3,3-trifluoro-2-methylpropyl)pyridin-3-yl)-N-(((1s,4S)-1-hydroxy-4-(methylsulfonyl)cyclohexyl)methyl)-1H-pyrazole-3-carboxamide], for which, in assay [1], binding was characterised by a dissociation constant (Kd) of 120 nM. Further, in assay [2], the IC50 was 2300 nM and the inhibition at 3 µM was 30%. The compound also yielded an IC50 in assay [3] of 370 nM.
Compound `CCn1nc(C(=O)NC[C@H]2CC[C@H](S(C)(=O)=O)CC2)c(Cl)c1-c1cnc(C[C@H](C)C(F)(F)F)cc1OC` (single isomer, unassigned) [Example 62, 4-Chloro-1-ethyl-5-(4-methoxy-6-((S*)-3,3,3-trifluoro-2-methylpropyl)pyridin-3-yl)-N-((1r,4r)-4-(methylsulfonyl)cyclohexyl)methyl)-1H-pyrazole-3-carboxamide] displayed a Kd in assay [1] of 17 nM. In addition, in assay [2], the IC50 came out at 180 nM and the inhibition at 2 µM was 89%. In addition, in assay [3], inhibition was half-maximal at 81 nM (IC50).
In assay [1], `CCn1nc(C(=O)NC[C@]2(O)CC[C@@H](S(C)(=O)=O)CC2)c(C)c1-c1cnc(CC(C)(C)C(F)(F)F)cc1OC(F)F` [Example 8, 5-(4-(Difluoromethoxy)-6-(3,3,3-trifluoro-2,2-dimethylpropyl)pyridin-3-yl)-1-ethyl-N-(((1s,4s)-1-hydroxy-4-(methylsulfonyl)cyclohexyl)methyl)-4-methyl-1H-pyrazole-3-carboxamide] gave a Kd of 11 nM. In addition, in assay [2], the IC50 was 56 nM and the inhibition at 3 µM stood at 100%. The same compound yielded an IC50 in assay [3] of 51 nM.
`CCn1nc(C(=O)NC[C@H]2CC[C@H](S(C)(=O)=O)CC2)c(Cl)c1-c1cnc(CC(C)(C)C(F)(F)F)cc1OC(F)F` [Example 9, 4-Chloro-5-(4-(difluoromethoxy)-6-(3,3,3-trifluoro-2,2-dimethylpropyl)pyridin-3-yl)-1-ethyl-N-(((1r,4r)-4-(methylsulfonyl)cyclohexyl)methyl)-1H-pyrazole-3-carboxamide] yielded a Kd in assay [1] of 0.75 nM. Further, the IC50 came out at 8.1 nM in assay [2] and 11 nM in assay [3]. Also, the inhibition at 3 µM in assay [2] stood at 117%.
In the same order, the values of `CCn1nc(C(=O)NC[C@]2(O)CC[C@@H](S(C)(=O)=O)CC2)c(Cl)c1-c1cnc(CC(C)(C)C(F)(F)F)cc1OC(F)F` [Example 10, 4-Chloro-5-(4-(difluoromethoxy)-6-(3,3,3-trifluoro-2,2-dimethylpropyl)pyridin-3-yl)-1-ethyl-N-(((1s,4s)-1-hydroxy-4-(methylsulfonyl)cyclohexyl)methyl)-1H-pyrazole-3-carboxamide] are 3.2 nM, 14 nM, 48 nM and 98%.
On to `CCn1nc(C(=O)NC[C@H]2CC[C@H](S(C)(=O)=O)CC2)c(C)c1-c1cnc(CC(C)(C)C(F)(F)F)cc1OC(F)F` [Example 13, 5-(4-(Difluoromethoxy)-6-(3,3,3-trifluoro-2,2-dimethylpropyl)pyridin-3-yl)-1-ethyl-4-methyl-N-(((1r,4r)-4-(methylsulfonyl)cyclohexyl)methyl)-1H-pyrazole-3-carboxamide], for which, in assay [1], binding was put at a Kd of 2.2 nM. Moreover, the values for the IC50 in assay [2] and in assay [3] were 11 nM and 38 nM, respectively. The inhibition at 3 µM in assay [2] turned out to be 91%.
For `CCn1nc(C(=O)NC[C@H]2CC[C@H](S(C)(=O)=O)CC2)c(C)c1-c1cnc(CC(C)(C)C(F)(F)F)cc1C(F)F` [Example 29, 5-(4-(Difluoromethyl)-6-(3,3,3-trifluoro-2,2-dimethylpropyl)pyridin-3-yl)-1-ethyl-4-methyl-N-(((1r,4r)-4-(methylsulfonyl)cyclohexyl)methyl)-1H-pyrazole-3-carboxamide], in that order: 24 nM, 360 nM, 210 nM and 39%.
In the same order, the values of `CCn1nc(C(=O)NC[C@H]2CC[C@H](S(C)(=O)=O)CC2)c(Cl)c1-c1cnc(CC(C)(C)C(F)F)cc1OC(F)F` [Example 37, 4-Chloro-5-(6-(3,3-difluoro-2,2-dimethylpropyl)-4-(difluoromethoxy)pyridin-3-yl)-1-ethyl-N-(((1r,4r)-4-(methylsulfonyl)cyclohexyl)methyl)-1H-pyrazole-3-carboxamide] are 3.5 nM, 21 nM, 34 nM and 98%.
Take `CCc1cc(CC(C)(C)C(F)(F)F)ncc1-c1c(Cl)c(C(=O)NC[C@]2(O)CC[C@@H](S(C)(=O)=O)CC2)nn1CC` [Example 55, 4-Chloro-1-ethyl-5-(4-ethyl-6-(3,3,3-trifluoro-2,2-dimethylpropyl)pyridin-3-yl)-N-(((1s,4s)-1-hydroxy-4-(methylsulfonyl)cyclohexyl)methyl)-1H-pyrazole-3-carboxamide]: the Kd in assay [1] is 30 nM. In assay [2], the IC50 turned out to be 280 nM and the inhibition at 3 µM is 78%.
In the same order, the values of `CCc1cc(CCC(C)(C)C)ncc1-c1c(Cl)c(C(=O)NC[C@]2(O)CC[C@@H](S(C)(=O)=O)CC2)nn1CC` [Example 59, 4-Chloro-5-(6-(3,3-dimethylbutyl)-4-ethylpyridin-3-yl)-1-ethyl-N-(((1s,4s)-1-hydroxy-4-(methylsulfonyl)cyclohexyl)methyl)-1H-pyrazole-3-carboxamide] are 35 nM, 210 nM and 82%.
`CCn1nc(C(=O)NC[C@H]2CC[C@H](S(C)(=O)=O)CC2)c(Cl)c1-c1cnc(CC(C)C(F)(F)F)cc1OC` (stereo partly shown) [Example 60, 4-Chloro-1-ethyl-5-(4-methoxy-6-(3,3,3-trifluoro-2-methylpropyl)pyridin-3-yl)-N-(((1r,4r)-4-(methylsulfonyl)cyclohexyl)methyl)-1H-pyrazole-3-carboxamide] returned a Kd in assay [1] of 11 nM. Moreover, in assay [2], the IC50 came out at 240 nM and the inhibition at 6 µM was 88%.
In assay [1], `CCn1nc(C(=O)NC[C@]2(O)CC[C@@H](S(C)(=O)=O)CC2)c(Cl)c1-c1cnc(O[C@H](C)C(F)(F)F)cc1OC` [Example 63, 4-Chloro-1-ethyl-N-(((1r,4R)-1-hydroxy-4-(methylsulfonyl)cyclohexyl)methyl)-5-(4-methoxy-6-(((R)-1,1,1-trifluoropropan-2-yl)oxy)pyridin-3-yl)-1H-pyrazole-3-carboxamide] returned a Kd of 12 nM. Moreover, in assay [2], the IC50 came out at 140 nM and the inhibition at 6 µM is 86%.
With `CCn1nc(C(=O)NC[C@H]2CC[C@H](S(C)(=O)=O)CC2)c(Cl)c1-c1cnc(O[C@@H](C)C(F)(F)F)cc1OC` [Example 64], the affinity in assay [1], expressed as Kd, was 15 nM. In assay [2], the IC50 stood at 280 nM and the inhibition at 2 µM is 39%.
For `CCn1nc(C(=O)NC[C@H]2CC[C@H](S(C)(=O)=O)CC2)c(Cl)c1-c1cnc(O[C@H](C)C(F)(F)F)cc1OC` [Example 65], in that order: 12 nM, 41 nM and 75%.
